Measurements published in patent US20120149081A1, “METHOD FOR FERMENTATION CULTURE IN MEDIUM CONTAINING XYLOSE” (priority 2010, published 2012).

What was measured:
[1] = tested on: recombinant yeast W801M strain; assay: Simultaneous (glucose/xylose) fermentation test in medium supplemented with amino acid, primary screening; format: cell-based, Saccharomyces cerevisiae; settings: hour 8 after start, amino acid amount per Table 3; for ΔXylose 0-8 h (decreased amount of xylose): YNGXAc+U medium (10 g/l xylose, 10 g/l glucose), 30° C., initial OD600=10, n=2; for Control ratio % (ΔXylose 0-8 h relative to no-addition control): YNGXAc+U medium, n=2
Procedure: (§1) The W801M strain prepared as described above was cultured in 5 ml of an YNG+U (6.7 g/l Yeast Nitrogen Base without amino acids, 20 g/l glucose, 20 mg/l uracil) liquid medium prepared in a test tube at 30° C. and 80 rpm for 24 hours, thereby preparing a pre-pre-culture solution. Next, the pre-pre-culture solution (5 ml) was added to new YNX+U liquid medium (250 ml) prepared in a baffled Erlenmeyer flask, followed by pre-culture at 30° C. and 100 rpm. After 48 hours of culture, the culture solution was subjected to 5 minutes of centrifugation at 1000×g at room temperature, thereby removing the supernatant.
(§2) To prevent the introduction of the substrate into the pre-culture solution, the thus collected microbial pellet was suspended in sterile water and then subjected to centrifugation at 1000×g for 5 minutes, thereby collecting microorganisms. Washing was performed twice. After washing, microorganisms were suspended in sterile water, so that a microbial solution was prepared. A sodium acetate buffer was added to the fermentation medium so as to suppress a pH decrease in the medium associated with fermentation. The microbial solution was added to an YNGXAc+U medium (6.7 g/l Yeast Nitrogen Base without amino acids, 10 g/l D-Xylose, 10 g/l Glucose, 25 mM sodium acetate, 20 mg/l uracil, pH 5.0) so that the initial microbial concentration was OD600=10. One type of amino acid was added to the YNGXAc+U medium to result in a predetermined concentration, and then the medium was used. Amino acid was dissolved in water to a concentration 10 times greater than the final concentration. Then the solution was adjusted to pH 5.0, diluted, and then used. The fermentation test was conducted as follows. Five (5) ml of the culture solution was added to a 15-ml plastic tube with a screw cap, the tube was sealed with the cap, and then the tube was shaken at 30° C. (100 rpm). Sampling from the culture solution was performed over time and thus substrates (xylose and glucose) and the product (ethanol) were analyzed via liquid chromatography. Liquid chromatography was performed using a Shim-pack SPR-Pb column (Shimadzu Corporation) at 80° C. An RID-10A refractive index detector (Shimadzu Corporation) was used. Water was used for a mobile phase and sent at a flow rate of 0.8 ml/min.
A fermentation test was conducted (n=2) using as a control an YNGXAc+U medium to which nothing had been added, an YNGXAc+U medium supplemented with casamino acid (CAA, 20 g/L) (that is, an amino acid mixture obtained via hydrolysis of casein) and YNGXAc+U medium supplemented with 18 types of amino acids considered to be contained in casamino acid (20 g/L) or 2 types of amino acid (glutamine and asparagine) (5 g/L) considered not to be contained in casamino acid. The results of the measurement of the decreased amounts of xylose at hour 8 after the start of the fermentation test are shown in Table 3.

[2] = tested on: recombinant yeast W801M strain; assay: Simultaneous (glucose/xylose) fermentation test in medium supplemented with amino acid, secondary test; format: cell-based, Saccharomyces cerevisiae; settings: n=4
Procedure: as §1, §2
In addition, 8 hours later, glucose had been completely consumed and thus was not detected in any samples.
Also, 2 hours later, glucose remained in all samples.
Also, 22 hours later, both glucose and xylose had been completely consumed and thus was not detected. It was understood from the results that the microbial concentrations had increased from the initial microbial concentration of OD600=10 to around OD600=15 at hour 22. However, the microbial concentrations at hour 22 when the amino acids were added were equivalent to or lower than that of the control.

Row | Structure (SMILES) | ΔXylose 0-8 h (decreased amount of xylose) [1] [g/L] | Control ratio % (ΔXylose 0-8 h relative to no-addition control) [1] [%] | xylose consumption rate compared with the control (decreased amount of xylose at hour 8, FIG. 7) ([2]; amino acid added at 0.3 g/L) | xylose consumption rate compared with the control (decreased amount of xylose at hour 8, FIG. 7) ([2]; amino acid added at 1 g/L)
1 | NCC(=O)O [Gly] | 3.03 | 114 | – | –
2 | N[C@@H](CCC(=O)O)C(=O)O [Glu, glutamic acid] | 2.25 | 85 | – | –
3 | O=C(O)[C@@H]1CCCN1 [Pro] | 2.97 | 112 | – | –
4 | N[C@@H](Cc1c[nH]c2ccccc12)C(=O)O [Trp] | 3.07 | 115 | – | –
5 | NC(=O)CC[C@H](N)C(=O)O [Gln, glutamine] | 3.05 | 115 | – | –
6 | CC(C)C[C@H](N)C(=O)O [Leu, leucine] | 1.12 | 42 | – | –
7 | N=C(N)NCCC[C@H](N)C(=O)O [Arg, arginine] | 2.91 | 109 | – | –
8 | N[C@@H](Cc1c[nH]cn1)C(=O)O [His, histidine] | 3.26 | 122 | Significant effects of improvement | –
9 | N[C@@H](Cc1ccccc1)C(=O)O [Phe] | 2.79 | 105 | – | –
10 | NC(=O)C[C@H](N)C(=O)O [Asn, asparagine] | 3.60 | 135 | Significant effects of improvement | Significant effects of improvement
11 | C[C@@H](O)[C@H](N)C(=O)O [Thr, threonine] | 3.29 | 124 | Significant effects of improvement | Significant effects of improvement
12 | CC[C@H](C)[C@H](N)C(=O)O [Ile] | 2.09 | 79 | – | –
13 | N[C@@H](CS)C(=O)O [Cys] | 2.81 | 106 | – | –
14 | N[C@@H](CO)C(=O)O [Ser, serine] | 3.42 | 128 | Significant effects of improvement | Significant effects of improvement
15 | C[C@H](N)C(=O)O [Ala, alanine] | 2.95 | 111 | – | –
16 | N[C@@H](Cc1ccc(O)cc1)C(=O)O [Tyr, tyrosine] | 3.62 | 136 | – | Significant effects of improvement
17 | CC(C)[C@H](N)C(=O)O [Val, valine] | 2.67 | 100 | – | –
18 | NCCCC[C@H](N)C(=O)O [Lys] | 3.08 | 116 | – | –
19 | N[C@@H](CC(=O)O)C(=O)O [Asp, aspartic acid] | 2.46 | 92 | – | –
20 | CSCC[C@H](N)C(=O)O [Met] | 2.67 | 100 | – | –
